The record followed here is publication PMC5240934, “Molecular Mechanism of Disease-Associated Mutations in the Pre-M1 Helix of NMDA Receptors and Potential Rescue Pharmacology” (PLoS Genetics, 2017).

Where two headings read alike, the source gives them in different places.

Assay in all cases: two-electrode voltage clamp, Xenopus oocytes
Type in all cases: cell-based
Background: Two-electrode voltage clamp is typically applied to oocytes expressing channels or transporters.

The target in one experiment is T1, rat GluN1/GluN2D (Rattus norvegicus, UniProt P35439+Q62645).
T1 construct: gene Grin1; full-length subunits in pCI-neo, cRNA in Xenopus laevis oocytes; di-heteromeric tetramer
An excerpt:
two-electrode voltage clamp, Xenopus oocytes on rat GluN1/GluN2D

Experiment [1] addresses T2, human GluN1/GluN2A (Homo sapiens, UniProt Q05586+Q12879).
T2 construct: gene GRIN1; full open reading frames in pCI-neo, cRNA in Xenopus laevis oocytes; di-heteromeric tetramer
An excerpt: (§1) two-electrode voltage clamp, Xenopus oocytes on human GluN1/GluN2A

For experiment [2], the target named is T3, human GluN1/GluN2A (Homo sapiens, UniProt Q05586+Q12879, Q12879:P552R).
T3 construct: gene GRIN1; full open reading frames in pCI-neo, cRNA in Xenopus laevis oocytes; di-heteromeric tetramer
T3 sequence (Q12879 23-1464 P552R, other chains not shown): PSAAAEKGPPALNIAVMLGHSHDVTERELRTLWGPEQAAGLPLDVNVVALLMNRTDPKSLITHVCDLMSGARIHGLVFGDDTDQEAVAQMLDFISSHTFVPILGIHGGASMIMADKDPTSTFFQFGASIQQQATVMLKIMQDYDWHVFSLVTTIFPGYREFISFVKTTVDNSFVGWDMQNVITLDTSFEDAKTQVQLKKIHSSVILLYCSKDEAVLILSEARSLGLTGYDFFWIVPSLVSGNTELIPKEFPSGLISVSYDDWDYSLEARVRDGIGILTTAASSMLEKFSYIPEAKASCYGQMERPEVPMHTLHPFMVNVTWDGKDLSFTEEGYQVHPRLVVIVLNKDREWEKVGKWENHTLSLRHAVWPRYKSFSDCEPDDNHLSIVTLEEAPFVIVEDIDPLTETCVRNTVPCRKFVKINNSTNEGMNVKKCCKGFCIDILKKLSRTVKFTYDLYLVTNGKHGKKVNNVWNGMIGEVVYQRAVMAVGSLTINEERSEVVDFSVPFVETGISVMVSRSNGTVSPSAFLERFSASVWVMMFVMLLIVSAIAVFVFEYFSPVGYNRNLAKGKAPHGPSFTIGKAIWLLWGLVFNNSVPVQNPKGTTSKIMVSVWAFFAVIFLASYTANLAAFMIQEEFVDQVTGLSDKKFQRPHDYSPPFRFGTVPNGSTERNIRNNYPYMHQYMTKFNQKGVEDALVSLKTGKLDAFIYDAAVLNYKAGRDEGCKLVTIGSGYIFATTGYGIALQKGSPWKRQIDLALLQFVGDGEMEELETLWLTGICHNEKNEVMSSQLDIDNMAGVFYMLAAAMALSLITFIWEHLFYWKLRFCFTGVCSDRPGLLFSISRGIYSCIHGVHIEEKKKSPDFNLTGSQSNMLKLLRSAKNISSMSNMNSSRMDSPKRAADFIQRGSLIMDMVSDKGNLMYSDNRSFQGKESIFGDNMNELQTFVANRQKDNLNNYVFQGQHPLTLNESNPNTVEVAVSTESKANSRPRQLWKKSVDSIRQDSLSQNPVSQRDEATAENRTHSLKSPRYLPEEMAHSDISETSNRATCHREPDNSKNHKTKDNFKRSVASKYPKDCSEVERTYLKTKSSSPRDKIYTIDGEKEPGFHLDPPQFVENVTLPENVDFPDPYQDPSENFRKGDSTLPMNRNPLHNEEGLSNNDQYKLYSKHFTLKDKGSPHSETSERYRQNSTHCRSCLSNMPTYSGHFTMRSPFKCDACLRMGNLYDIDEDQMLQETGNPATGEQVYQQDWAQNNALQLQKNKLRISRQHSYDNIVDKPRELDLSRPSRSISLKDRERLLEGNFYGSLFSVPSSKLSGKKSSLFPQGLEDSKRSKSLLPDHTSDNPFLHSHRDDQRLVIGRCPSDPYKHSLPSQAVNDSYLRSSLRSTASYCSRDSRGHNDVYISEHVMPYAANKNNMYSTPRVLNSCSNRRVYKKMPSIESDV
Source text: as §1

Experiment [3] concerns the target T4, human GluN1/GluN2A (Homo sapiens, UniProt Q05586+Q12879, Q05586:D552E).
T4 construct: gene GRIN1; full open reading frames in pCI-neo, cRNA in Xenopus laevis oocytes; di-heteromeric tetramer
Source text: as §1

In experiment [4] the target is T5, human GluN1/GluN2A (Homo sapiens, UniProt Q05586+Q12879, Q05586:P557R).
T5 construct: gene GRIN1; full open reading frames in pCI-neo, cRNA in Xenopus laevis oocytes; di-heteromeric tetramer
Source text: as §1

Experiment [5] addresses T6, human GluN1/GluN2A (Homo sapiens, UniProt Q05586+Q12879, Q12879:A548T).
T6 construct: gene GRIN1; full open reading frames in pCI-neo, cRNA in Xenopus laevis oocytes; di-heteromeric tetramer
Source text: as §1

Experiment [6] has as its target T7, human GluN1/GluN2B (Homo sapiens, UniProt Q05586+Q13224, Q05586:D552E).
T7 construct: gene GRIN1; full open reading frames in pCI-neo, cRNA in Xenopus laevis oocytes; di-heteromeric tetramer
An excerpt: (§2) two-electrode voltage clamp, Xenopus oocytes on human GluN1/GluN2B

The target of experiment [7] is T8, human GluN1/GluN2B (Homo sapiens, UniProt Q05586+Q13224, Q13224:P553R).
T8 construct: gene GRIN1; full open reading frames in pCI-neo, cRNA in Xenopus laevis oocytes; di-heteromeric tetramer
Source text: as §2

For experiment [8], the target named is T9, human GluN1/GluN2B (Homo sapiens, UniProt Q05586+Q13224, Q05586:P557R).
T9 construct: gene GRIN1; full open reading frames in pCI-neo, cRNA in Xenopus laevis oocytes; di-heteromeric tetramer
Source text: as §2

The mark [9] stands for this setting: read-out: IC50 (n; max inhibition) / GluN2A-P552R.

T2 sequence (Q12879 23-1464, other chains not shown): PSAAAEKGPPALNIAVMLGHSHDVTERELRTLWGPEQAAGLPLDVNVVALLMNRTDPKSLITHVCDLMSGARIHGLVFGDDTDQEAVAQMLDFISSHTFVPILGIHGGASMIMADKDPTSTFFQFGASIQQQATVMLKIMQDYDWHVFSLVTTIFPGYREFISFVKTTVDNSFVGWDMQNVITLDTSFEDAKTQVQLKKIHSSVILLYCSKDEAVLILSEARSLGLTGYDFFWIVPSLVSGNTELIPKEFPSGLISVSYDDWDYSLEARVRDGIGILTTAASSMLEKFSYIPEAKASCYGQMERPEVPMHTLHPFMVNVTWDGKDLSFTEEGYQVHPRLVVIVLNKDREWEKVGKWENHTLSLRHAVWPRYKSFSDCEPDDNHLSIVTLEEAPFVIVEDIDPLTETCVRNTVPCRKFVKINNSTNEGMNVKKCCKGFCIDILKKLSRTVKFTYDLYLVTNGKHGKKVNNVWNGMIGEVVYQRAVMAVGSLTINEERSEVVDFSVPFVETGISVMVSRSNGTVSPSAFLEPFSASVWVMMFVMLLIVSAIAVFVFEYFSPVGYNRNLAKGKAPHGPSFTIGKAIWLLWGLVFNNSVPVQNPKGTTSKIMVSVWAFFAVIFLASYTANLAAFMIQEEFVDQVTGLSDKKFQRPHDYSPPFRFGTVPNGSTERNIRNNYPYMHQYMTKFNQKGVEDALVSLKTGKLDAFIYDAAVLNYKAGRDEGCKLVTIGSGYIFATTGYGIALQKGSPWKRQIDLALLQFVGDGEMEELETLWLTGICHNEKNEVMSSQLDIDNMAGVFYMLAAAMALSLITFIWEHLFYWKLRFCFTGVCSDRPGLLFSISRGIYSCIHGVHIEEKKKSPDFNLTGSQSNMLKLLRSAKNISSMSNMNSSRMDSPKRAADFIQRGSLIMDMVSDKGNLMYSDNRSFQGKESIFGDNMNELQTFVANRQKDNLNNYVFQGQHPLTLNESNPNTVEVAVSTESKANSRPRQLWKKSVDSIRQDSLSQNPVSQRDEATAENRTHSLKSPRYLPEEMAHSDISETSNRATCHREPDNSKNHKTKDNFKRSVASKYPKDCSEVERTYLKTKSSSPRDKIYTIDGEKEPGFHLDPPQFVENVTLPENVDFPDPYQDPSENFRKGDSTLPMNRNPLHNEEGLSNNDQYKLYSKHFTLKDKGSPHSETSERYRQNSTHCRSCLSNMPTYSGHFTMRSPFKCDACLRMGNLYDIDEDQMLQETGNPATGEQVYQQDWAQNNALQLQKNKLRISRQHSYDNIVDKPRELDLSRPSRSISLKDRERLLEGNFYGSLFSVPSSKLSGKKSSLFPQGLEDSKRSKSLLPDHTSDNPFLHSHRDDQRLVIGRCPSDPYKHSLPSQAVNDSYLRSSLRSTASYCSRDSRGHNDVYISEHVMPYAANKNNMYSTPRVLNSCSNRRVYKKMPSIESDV
T4 sequence (Q12879 23-1464, other chains not shown): as above

Molecule `N[C@@H](CCC(=O)O)C(=O)O` [Glutamate] returned an EC50 on rat GluN1/GluN2D of 400 ± 70 nM.

Regarding `CNC1(c2ccccc2Cl)CCCCC1=O` (stereo not drawn) [Ketamine], the figures for the IC50 against human GluN1/GluN2A [1] and at human GluN1/GluN2A [2] were 4700 ± 800 nM and 1300 ± 200 nM, respectively.

Turning to `NCC(=O)O` [Glycine], the EC50 was found to be 3700 ± 320 nM at human GluN1/GluN2A [3]; 1400 ± 140 nM on human GluN1/GluN2A [1]; 180 ± 20 nM at human GluN1/GluN2A [4]; 60 ± 10 nM at human GluN1/GluN2A [2] (read-out: Di-heteromeric NMDA Receptors / GluN2A-P552R); 2400 ± 90 nM on human GluN1/GluN2A [5]; 660 ± 70 nM at human GluN1/GluN2B [6]. Besides, the EC50 amounted to 50 ± 10 nM at human GluN1/GluN2B [7] and 70 ± 10 nM at human GluN1/GluN2B [8].

`NC12CC3CC(CC(C3)C1)C2` [Amantadine]: the IC50 amounted to 126000 ± 17000 nM at human GluN1/GluN2A [1] (read-out: IC50 (n; max inhibition) / GluN2A-WT) and 86000 ± 22000 nM at human GluN1/GluN2A [2] (setting [9]).

Consider `COc1ccc2c(c1)[C@]13CCCC[C@@H]1[C@H](C2)N(C)CC3` [Dextromethorphan], for which the IC50 came out at 18000 ± 2900 nM on human GluN1/GluN2A [1] (channel blocker, -40 mV, pH 7.4, no Mg2+, 23 °C, read-out: IC50 (n; max inhibition) / GluN2A-WT) and 15000 ± 4600 nM at human GluN1/GluN2A [2] (setting [9]).

As a reminder, the IC50 is the concentration at which inhibition is half-maximal.
